These results are taken from US9458437B2, “Neuroprotective peptides that inhibit interaction between palmitoyl acyl transferase zinc-finger DHHC type containing 17 (zD17) and c-jun N-terminal kinase (JNK)” (The University of British Columbia, priority 2011, dated 2016).

One test has as its system neuronal cultures. Nature of the test: LDH assay and PI staining, NMDA excitotoxicity-induced neuronal cell death. It counts as cell-based, rat. As to conditions: for excitotoxicity-induced cell death as measured by LDH release and PI staining: pretreatment, NMDA challenge 1 h, 24 h survival. The method, then: For biochemical studies, neurons were seeded in six-well culture plates with a density of 7.5×10^5 cells per well. For LDH assay and cell death detection, 24-well culture plates were used with a neuron density of 2.5×10^5 cells per well. Neurons of 14-17 days in vitro (DIV) were used for experiments. […] HEK 293 cells were maintained in DMEM (Invitrogen™) supplemented with 10% fetal bovine serum and 1% penicillin/streptomycin. For protein expression in cell lines, cells were transfected with Calcium Phosphate Transfection reagent (Promega™, San Luis Obispo, Calif., USA) and used 24 h later as described previously (Yang et al., 2009). The JNK inhibitor, L-JNKI, was purchased from Alexis Biochemicals™ (San Diego, Calif.). Thrombin was obtained from BIOPUR™ (Bubendorf, Switzerland). Other assay reagents without indication were obtained from Sigma™.
Neuronal cultures were challenged with indicated concentrations of NMDA for 1 h, followed by 24 h survival. The release of lactate dehydrogenase (LDH) was measured with an in vitro toxicology assay kit (Sigma™) according to the manufacturer's instructions. Spectrophotometric measurement was performed on a Multilabel Plate Reader (Envision™ 2103, Perkin Elmer™). The LDH reading represents the primary absorbance at a wavelength of 490 nm after subtraction of background absorbance at 690 nm. LDH readings were then converted to a percentage of neuronal death by dividing by the readings from cultures incubated with 1% triton for 15 min representing total LDH. Following the LDH assay, propidium iodide (PI) (Sigma™) was added to the medium at a final concentration of 1 μg/ml and neurons were stained for 30 min at 30° C. After fixation with 4% paraformaldehyde, neurons were washed with 1×PBS and stained with Hoechst™ 33342 (Sigma™). The fluorescence of PI and Hoechst™ were examined with laser microscopy and analyzed with ImageJ™.
Background: LDH in the medium is a marker of cell lysis.

Test [1] relates to middle cerebral artery occlusion (MCAo). Nature of the test: transient MCAo in SD rats, adhesive removal test (ART). The test is classed as in vivo, Sprague-Dawley rat. The method, then:
Adult male Sprague-Dawley (SD) rats weighing 250-290 g were employed for transient middle cerebral artery occlusion. Rats were anaesthetized with 5% isofluorane and maintained with 2% isofluorane in 70% N2O and 30% O2 using a face mask. 5 mg/kg ketoprofen was given pre-surgery to block pain. Rectal temperature was maintained at 37° C. during surgery with a homeothermic blanket system (Harvard Apparatus™, Holliston, Mass.). The scalp was incised at the midline and the skull was exposed. The skull was thinned with a dental drill at a region ipsilateral to the expected ischemia zone (2 mm posterior and 5 mm lateral from the bregma). A laser probe of the Doppler flowmeter (Perimed™, Jäffälla, Sweden) was placed at this location during surgery to detect cerebral blood flow (CBF) (Nagal et al., 2010). Transient MCAo was induced using a method of intraluminal vascular occlusion described elsewhere (Aarts et al., 2002; Belayev et al., 1996; and Longa et al., 1989). Briefly, a poly-L-lysine coated 3-0 monofilament nylon suture (Harvard Apparatus™, Holliston, Mass.) with a rounded tip was advanced from the left common carotid artery into the internal carotid artery until a sudden drop of CBF was noted, indicating the blockade of the origin of the MCA. The success of induction of ischemia was confirmed by a fall of CBF to less than 25% of baseline level and by neurological assessment scores during MCAo (1 h after the onset). Two hours after MCAo, rats were re-anaesthetized and the suture was removed to allow reperfusion, confirmed by the increase of CBF at the same area.
Peptides were synthesized by PepMetric Technologies™ or GL Biochem™ (Shanghai, China). Peptides were prepared freshly in saline on the day of experiment at a stock concentration of 1 mg/ml. 1 mg/kg peptides were administrated at indicated times (30 min before, 2 h after or 6 h after the onset of ischemia) by a single intravenous injection at rat tails. NIMoEscr or NIMoEsh were injected at 4 h after MCAo onset to randomly chosen rats. For long-term studies, peptides were given 2 h after MCAo onset. Injections of NIMoEscr and NIMoEsh were made, brain damage was assessed and functional evaluations performed in a double-blind manner To examine the delivery of the peptide into the brain, 5 mg/kg FITC-labelled NIMoE or only saline was intravenously injected 1 h before perfusion. The rats were then perfused with PBS followed by fixation solution (4% paraformaldehyde in PBS). Brains were removed, postfixed in fixation solution for 2 h and then soaked in 20% sucrose-PBS buffer at 4° C. for 24 h. After rapid freezing in Tissue-Tek™ embedding medium (Sakura™, Torrance, Calif.) on dry ice, 20 μm sections were cut on a cryostat (Leica™ CM3050, Ontario, Canada) and examined for FITC fluorescence by a laser microscopy (Zeiss™, Axiovert 200).
All animals were tested for neurological function during (1 h after onset) and 24 h after MCAo. Motor, sensory and coordination capacities were evaluated with modified Neurological Severity Scores (NSS) (Watanabe et al., 2004; Bederson et al., 1986). […] Coordination functions were assessed with 3 tests including a foot fault test, edge test and balance beam. Performance in the tests was evaluated on a cumulative scale from 0 to 2 (10 tests), except for two tests (tail suspension and balance beam in which scores ranged from 0 to Sand 0 to 4, respectively). […] The time spent on removing the tape from paw within 2 min was recorded.

As for “HRYRWLTDLLSMVTTPAAPM (NIMoEscr scrambled NIMoE) [negative control peptide resulting from a scrambled NIMoE, reference compound]”, in the test on neuronal cultures, the “excitotoxicity-induced cell death as measured by LDH release and PI staining” value (shortened to “excitotoxicity-induced cell death”) was “no protective effects”. Besides, the “adhesive removal test (ART), contralateral side” value in test [1] (scrambled control peptide group) is 10.80 ± 2.06 s.
For “MTPLMWAAYRTHSVDPTRLL (listed as Homo sapiens) [NIMoE, peptide comprising motif-E of zD17, fused to the cell-membrane transduction domain of HIV-1 Tat for cell experiments]”, the “protection of neurons over NMDA concentrations” value in the test on neuronal cultures (NMDA 10 μM to 100 μM) is recorded as “protected neurons against a broad range of NMDA concentrations”. Also, in the test with neuronal cultures, the “excitotoxicity-induced cell death” value is “significantly prevented”. Further, the entries for the “adhesive removal test (ART), contralateral side” value in test [1] (injection +2 h), in test [1] (injection +4 h) and in test [1] (injection −0.5 h) were 62.1 ± 8.60 s, 60.83 ± 8.13 s and 48.62 ± 8.24 s, respectively.
“WAAYRTHSVD (listed as Homo sapiens) [NIMoEsh, shorter 10mer of NIMoE, primarily the loop region of motif-E (zD17 196-205)]”: the “excitotoxicity-induced cell death” value with neuronal cultures was “significantly prevented”. Besides, in test [1] (MCAo rats), the “somatosensory functions in ART” value is listed as “large preservation of somatosensory functions”.
